Data published in PubChem BioAssay AID248 (DTP/NCI, 2004).
Toxic doses and inconclusive results are not listed. No stated cut-off is given here; in the data, active means T/C of 150% or more; inactive means T/C below 125%.

Test system: L1210 leukemia ip in BDF1 mice, survival T/C
Test: NCI In Vivo Anticancer Drug Screen. Data for tumor model L1210 Leukemia (intraperitoneal) in B6D2F1 (BDF1) mice
Conditions: endpoint: mean survival time, higher = longer survival
Method in brief: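 Transplanted-tumor mice were given test agent; controls received vehicle only. Survival readings from the two groups were divided (treated over control).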

[1] = dose: 100.0 mg/kg/injection, schedule: Q04DX003 (ip), vehicle: other
[2] = dose: 200.0 mg/kg/injection, schedule: Q04DX003 (ip), vehicle: other
[3] = dose: 400.0 mg/kg/injection, schedule: Q04DX003 (ip), vehicle: other
[4] = dose: 50.0 mg/kg/injection, schedule: Q01DX001 (ip), vehicle: carboxymethylcellulose (CMC)
[5] = dose: 100.0 mg/kg/injection, schedule: Q01DX001 (ip), vehicle: carboxymethylcellulose (CMC)
[6] = dose: 200.0 mg/kg/injection, schedule: Q01DX001 (ip), vehicle: carboxymethylcellulose (CMC)
[7] = dose: 400.0 mg/kg/injection, schedule: Q01DX001 (ip), vehicle: carboxymethylcellulose (CMC)
[8] = dose: 100.0 mg/kg/injection, schedule: Q01DX009 (ip), vehicle: saline with Tween-80
[9] = dose: 100.0 mg/kg/injection, schedule: Q04DX003 (ip), vehicle: saline with Tween-80
[10] = dose: 200.0 mg/kg/injection, schedule: Q01DX009 (ip), vehicle: saline with Tween-80
[11] = dose: 200.0 mg/kg/injection, schedule: Q04DX003 (ip), vehicle: saline with Tween-80
[12] = dose: 400.0 mg/kg/injection, schedule: Q04DX003 (ip), vehicle: saline with Tween-80
[13] = dose: 100.0 mg/kg/injection, schedule: Q01DX001 (ip), vehicle: other
[14] = dose: 200.0 mg/kg/injection, schedule: Q01DX001 (ip), vehicle: other
[15] = dose: 400.0 mg/kg/injection, schedule: Q01DX001 (ip), vehicle: other
[16] = dose: 400.0 mg/kg/injection, schedule: Q01DX009 (ip), vehicle: saline with Tween-80
[17] = dose: 100.0 mg/kg/injection, schedule: Q04DX003 (ip), vehicle: saline
[18] = dose: 200.0 mg/kg/injection, schedule: Q04DX003 (ip), vehicle: saline
[19] = dose: 400.0 mg/kg/injection, schedule: Q04DX003 (ip), vehicle: saline
[20] = dose: 100.0 mg/kg/injection, schedule: Q04DX002 (ip), vehicle: saline with Tween-80
[21] = dose: 200.0 mg/kg/injection, schedule: Q04DX002 (ip), vehicle: saline with Tween-80
[22] = dose: 100.0 mg/kg/injection, schedule: Q01DX009 (ip), vehicle: Klucel (hydroxypropylcellulose) (HPC)
[23] = dose: 200.0 mg/kg/injection, schedule: Q01DX009 (ip), vehicle: Klucel (hydroxypropylcellulose) (HPC)

Measured: T/C

CC1=CC(C)C(=O)N(C)C(C)=C1 (configuration not stated)
inactive: dose: 75.0 mg/kg/injection, schedule: Q01DX001 (ip), vehicle: carboxymethylcellulose (CMC) 97 % of control | dose: 150.0 mg/kg/injection, schedule: Q01DX001 (ip), vehicle: carboxymethylcellulose (CMC) 91 % of control | dose: 300.0 mg/kg/injection, schedule: Q01DX001 (ip), vehicle: carboxymethylcellulose (CMC) 92 % of control

CC(C)CC(=O)Nc1ccccc1
inactive: dose: 100.0 mg/kg/injection, schedule: Q04DX003 (ip), vehicle: Klucel (hydroxypropylcellulose) (HPC) 105 % of control | [1] 98 % of control | dose: 200.0 mg/kg/injection, schedule: Q04DX003 (ip), vehicle: Klucel (hydroxypropylcellulose) (HPC) 101 % of control | [2] 98 % of control | dose: 400.0 mg/kg/injection, schedule: Q04DX003 (ip), vehicle: Klucel (hydroxypropylcellulose) (HPC) 89 % of control | [3] 89 % of control

CC(=O)CC(SCCSCCSC(CC(C)=O)c1ccccc1)c1ccccc1 (configuration not stated)
inactive: [4] 89 % of control | [5] 89 % of control | [6] 97 % of control | [7] 97 % of control

Cc1ccc(C)c(CCN)c1
inactive: dose: 25.0 mg/kg/injection, schedule: Q01DX009 (ip), vehicle: saline with Tween-80 103 % of control | dose: 50.0 mg/kg/injection, schedule: Q01DX009 (ip), vehicle: saline with Tween-80 98 % of control | dose: 50.0 mg/kg/injection, schedule: Q04DX003 (ip), vehicle: saline with Tween-80 100 % of control | [8] 94 % of control | [9] 92 % of control

CS(=O)(=O)OCCN(Cc1ccc(OS(C)(=O)=O)cc1)S(C)(=O)=O
inactive: [8] 91 % of control | [9] 109 % of control | [10] 93 % of control | [11] 95 % of control | [12] 109 % of control

CCOC(=O)C(c1ccccc1)N(c1ccccc1)S(=O)(=O)c1ccc(C)cc1 (configuration not stated)
inactive: [13] 116 % of control | [14] 98 % of control | [15] 101 % of control

O=C1OC(c2cccc([N+](=O)[O-])c2)=N/C1=C\c1ccccc1
inactive: [8] 94 % of control | [10] 102 % of control | [16] 94 % of control

Cc1ccc(S(=O)(=O)NCN2C(=O)c3ccccc3C2=O)cc1
inactive: dose: 100.0 mg/kg/injection, schedule: Q01DX001 (ip), vehicle: acetone 98 % of control | [8] 93 % of control | [17] 94 % of control | dose: 200.0 mg/kg/injection, schedule: Q01DX001 (ip), vehicle: acetone 93 % of control | [10] 98 % of control | [18] 97 % of control | dose: 400.0 mg/kg/injection, schedule: Q01DX001 (ip), vehicle: acetone 95 % of control | [16] 97 % of control | [19] 99 % of control

S=P1(Oc2ccccc2)Nc2ccccc2N1c1ccccc1 (configuration not stated)
inactive: [20] 92 % of control | [21] 98 % of control | dose: 400.0 mg/kg/injection, schedule: Q04DX002 (ip), vehicle: saline with Tween-80 95 % of control

N#CCNC(=O)c1ccccc1
inactive: dose: 12.5 mg/kg/injection, schedule: Q01DX009 (ip), vehicle: Klucel (hydroxypropylcellulose) (HPC) 101 % of control | dose: 25.0 mg/kg/injection, schedule: Q01DX009 (ip), vehicle: Klucel (hydroxypropylcellulose) (HPC) 104 % of control | dose: 25.0 mg/kg/injection, schedule: Q04DX003 (ip), vehicle: Klucel (hydroxypropylcellulose) (HPC) 98 % of control | dose: 50.0 mg/kg/injection, schedule: Q01DX009 (ip), vehicle: Klucel (hydroxypropylcellulose) (HPC) 102 % of control | dose: 50.0 mg/kg/injection, schedule: Q04DX003 (ip), vehicle: Klucel (hydroxypropylcellulose) (HPC) 98 % of control

NC(CSC(c1ccccc1)(c1ccccc1)c1ccccc1)C(=O)OC(c1ccccc1)c1ccccc1 (configuration not stated)
inactive: dose: 264.0 mg/kg/injection, schedule: Q01DX001 (ip), vehicle: carboxymethylcellulose (CMC) 113 % of control

CCOc1cc(C(F)(F)F)nc2c3c(cc(OC)c12)CCCN3CC
inactive: [9] 102 % of control | [11] 100 % of control | [12] 97 % of control

C=CCO[Si](C=C)(OCC=C)OCC=C
inactive: dose: 75.0 mg/kg/injection, schedule: Q01DX001 (ip), vehicle: other 116 % of control | dose: 150.0 mg/kg/injection, schedule: Q01DX001 (ip), vehicle: other 95 % of control | dose: 300.0 mg/kg/injection, schedule: Q01DX001 (ip), vehicle: other 94 % of control

Cc1ccc(NC(=O)C(=O)Nc2ccc(C)cc2)cc1
inactive: [22] 90 % of control | [1] 93 % of control | [23] 89 % of control | [2] 92 % of control | dose: 400.0 mg/kg/injection, schedule: Q01DX009 (ip), vehicle: Klucel (hydroxypropylcellulose) (HPC) 90 % of control | [3] 89 % of control

CCOc1ccc(NC(=O)N(O)C2(C#N)CCCCC2)cc1
inactive: [13] 93 % of control | [14] 96 % of control | [15] 93 % of control

NC(N)=Nc1ccc(OC(=O)c2ccc(N=C(N)N)cc2)cc1
inactive: dose: 25.0 mg/kg/injection, schedule: Q01DX009 (ip), vehicle: water 96 % of control | dose: 50.0 mg/kg/injection, schedule: Q01DX009 (ip), vehicle: water 96 % of control

O=C(Cn1ccc(=O)[nH]c1=O)c1ccco1
inactive: [17] 102 % of control | [18] 107 % of control | [19] 98 % of control

Cc1ccc2c(c1)C(c1ccccc1)(c1ccccc1)OC2=O
inactive: [8] 98 % of control | [10] 98 % of control | [16] 103 % of control

Cc1cnccc1N=Nc1ccc(N(C)C)cc1
inactive: [9] 104 % of control | [11] 104 % of control | [12] 101 % of control

[Se]=P(c1ccccc1)(c1ccccc1)c1ccccc1
inactive: [22] 103 % of control | [23] 90 % of control

O=C(O)/C(=C\c1cc2c(cc1[N+](=O)[O-])OCO2)c1cc2c(cc1Br)OCO2
inactive: [4] 97 % of control | [5] 100 % of control | [6] 103 % of control | [7] 92 % of control

Cn1c(=O)c2ncn(CC3CCCCC3)c2n(C)c1=O
inactive: [4] 87 % of control | [5] 90 % of control | [6] 86 % of control

c1ccc2cc(-c3nc4cccc5c4n3CCC5)ccc2c1
inactive: [8] 97 % of control | [9] 92 % of control | [10] 95 % of control | [11] 89 % of control | [16] 98 % of control | [12] 94 % of control

CCCCCC#CC(O)(C(=O)OC)c1ccccc1 (configuration not stated)
inactive: [13] 107 % of control | [14] 107 % of control | [15] 100 % of control

c1nc(N2CC2)c2cnn(C3CCCCO3)c2n1 (configuration not stated)
inactive: [4] 97 % of control | dose: 50.0 mg/kg/injection, schedule: Q01DX009 (ip), vehicle: saline 102 % of control | [5] 103 % of control | dose: 100.0 mg/kg/injection, schedule: Q01DX009 (ip), vehicle: saline 113 % of control | [17] 100 % of control | [6] 106 % of control | dose: 200.0 mg/kg/injection, schedule: Q01DX009 (ip), vehicle: saline 112 % of control | [18] 97 % of control | [7] 103 % of control

CC12CCC(C(=O)C1=O)C2(C)C (configuration not stated)
inactive: [4] 121 % of control | [5] 103 % of control | dose: 100.0 mg/kg/injection, schedule: Q04DX002 (ip), vehicle: Klucel (hydroxypropylcellulose) (HPC) 99 % of control | [6] 109 % of control | dose: 200.0 mg/kg/injection, schedule: Q04DX002 (ip), vehicle: Klucel (hydroxypropylcellulose) (HPC) 96 % of control | [7] 113 % of control | dose: 400.0 mg/kg/injection, schedule: Q04DX002 (ip), vehicle: Klucel (hydroxypropylcellulose) (HPC) 89 % of control

NC(CSSCC(N)=NCC12CC3CC(CC(C3)C1)C2)=NCC12CC3CC(CC(C3)C1)C2
inactive: [20] 97 % of control | [21] 105 % of control

CC1=NN(P(=O)(c2ccccc2)c2ccccc2)/C(=C\c2ccccc2)O1
inactive: dose: 100.0 mg/kg/injection, schedule: Q01DX001 (ip), vehicle: steriod suspending solution 90 % of control | dose: 200.0 mg/kg/injection, schedule: Q01DX001 (ip), vehicle: steriod suspending solution 104 % of control | dose: 400.0 mg/kg/injection, schedule: Q01DX001 (ip), vehicle: steriod suspending solution 90 % of control
